Results taken from US8314082B2, “Stilbene derivatives for ADP-ribosyl cyclase inhibitors” (Industrial Cooperation Foundation Chonbuk National …, priority 2006, dated 2012).
Where two headings read alike, the source gives them in different places.

Columns and labels:
[1] = system: Ang II induced [Ca^2+]i increase in murine mesangial cells (MMCs); test: Ang II-mediated [Ca2+]i increase in MMCs; assay type: cell-based; conditions: Mus musculus, Mesangial cell, later sustained Ca2+ signal induced by 150 nM Ang II, 300 s, read-out: IC50([Ca^2+]i, uM) (means ± SEM)
Method: Changes in [Ca^2+]i in MMCs were determined as described previously [Kim et al., Exp. Mol. Med. (2006)38:535-45]. Briefly, MMCs cultured on confocal dishes for 48 h at a concentration of 10^4 cells/dish were washed with Hank's balanced salt solution (HBSS) (2 mM CaCl2, 145 mM NaCl, 5 mM KCl, 1 mM MgCl2, 5 mM D-glucose, and 20 mM HEPES, pH 7.3) and then loaded with […] Fluo 3-AM (Molecular Probe, Eugene, Oreg.). Changes in Ca^2+ fluorescence were determined at 488 nm/530 nm (excitation/emission) by air-cooled argon laser system. [Ca^2+]i was calculated using a Kd of 325 nM for Fluo 3-AM by the method of Tsien et al. (1982).

[2] = system: Ang II induced cADPR production in murine mesangial cells (MMCs); test: Ang II-induced intracellular cADPR concentration in MMCs; assay type: cell-based; conditions: Mus musculus, Mesangial cell, read-out: IC50([CADPR]i, uM) (means ± SEM)
Method: [cADPR]i was measured using a cyclic enzymatic assay as described previously [Graeff et al., Biochem. J. (2002)361:379-84]. Aplysia californica ADPR-cyclase was purified from […] according to the method described [Lee et al., Cell Regul. (1991)2:203-9]. Briefly, MMCs were treated with 0.3 ml of 0.6 M perchloric acid under sonication after Ang II treatment. Precipitates were removed by centrifugation at 20,000×g for 10 min. Perchloric acid was removed by mixing the aqueous sample with a solution containing 3 volumes of 1,1,2-trichlorotrifluoroethane to 1 volume of tri-n-octlyamine. After centrifugation for 10 min at 1500×g, the aqueous layer was collected and neutralized with 20 mM sodium phosphate (pH 8). To remove all contaminating nucleotides, the samples were incubated with the following hydrolytic enzymes overnight at 37° C.: 0.44 unit/ml nucleotide pyrophosphatase, 12.5 units/ml alkaline phosphatase, 0.0625 unit/ml NADase, and 2.5 mM MgCl2 in 20 mM sodium phosphate buffer (pH 8.0). Enzymes were removed by filtration using Centricon-3 filters. To convert cADPR to NAD^+, the samples (0.1 ml/tube) were incubated with […] of a cycling reagent containing 0.3 mg/ml Aplysia ADPR-cyclase, 30 mM nicotinamide, and 100 mM sodium phosphate (pH 8) at room temperature for 30 min. The samples were further incubated with the cycling reagent (0.1 ml) containing 2% ethanol, […] alcohol dehydrogenase, 20 mM resazurin, 10 mg/ml diaphorase, 10 mM riboflavin 5′-phosphate, 10 mM nicotinamide, 0.1 mg/ml BSA, and 100 mM sodium phosphate (pH 8.0) for 2 h at room temperature. An increase in the resorufin fluorescence was measured at 544 nm excitation and 590 nm emission using a fluorescence plate reader (Molecular Devices Corp., Spectra-Max GEMINI). Various known concentrations of cADPR were also included in the cycling reaction to generate a standard curve. […] Production of cADPR as well as later sustained Ca^2+ signal in response to Ang II was inhibited with different efficacy by these small molecules (Table 1). […] The order of IC50 was 4,4′-DAHB>resveratrol>azobenzene=piceatannol>2,2′-DAHB.

[3] = system: STZ diabetic mice; test: Diabetic nephropathy in STZ diabetes mouse model; assay type: in vivo; conditions: 45 μg/kg i.p. once a day for 6 weeks, mean SE, n = 6
Method: Male mice, weighing 20 25 g, were made diabetic by a single intravenous injection of STZ (65 mg/kg body weight) in 0.05 M citrate buffer (pH 4.8). At the same day, the control mice were injected with the citrate buffer. After 2 days, induction of diabetes was confirmed by tail blood glucose level measurement by using the LifeScan One Touch glucometer (Johnson & Johnson). The diabetic mice (>16 mM blood glucose) were randomly divided into two groups; 6 mice per group treated with vehicle (0.1% DMSO in saline, 100 μl) or DHAB (45 μg/kg body weight in 0.1% DMSO in saline, 100 μl) and resveratrol (45 μg/kg body weight in 0.1% DMSO in saline, 100 μl) administered by intraperitoneal injection once a day for 6 weeks. The control mice were 6 mice per group treated with the vehicle. On day 39, the mice were detained in individual metabolic cages for 24 h for urine collection. On day 42, the mice were anesthetized with diethyl ether, and blood samples were taken from the abdominal aorta. Bilateral kidneys were rapidly removed and weighed. Urine was gravimetrically collected, and urinary albumin concentrations were determined with an enzyme-linked immunosorbent assay using a murine microalbuminuria kit (Albuwell; Exocell, Philadelphia, Pa.). Urine and serum creatinine levels were measured using the QuantiChrom Creatinine Assay Kit (BioAssay Systems, Hayward, Calif.), following the manufacturer's protocol.

[4] = cADPR production induced by 150 nM Ang II, 90 s, MMCs

| IC50 [1] | IC50 [2, 4] | SMILES | IC50 [2] | Urine output ([3]; 24 h metabolic cage) | Body Weight [3] | Food intake [3] | Plasma glucose [3] | Urinary Albumin [3] | Water intake [3] |
| --- | --- | --- | --- | --- | --- | --- | --- | --- | --- |
| 10 ± 1.7 µM | 8.9 ± 1.5 µM | Oc1cc(O)cc(/C=C/c2ccc(O)c(O)c2)c1 [Piceatannol, 3,5,3′,4′-tetrahydroxy-trans-stilbene] | – | – | – | – | – | – | – |
| 5 ± 0.8 µM | 5.5 ± 0.5 µM | Oc1ccc(/C=C/c2cc(O)cc(O)c2)cc1 [Resveratrol, 3,5,4′-trihydroxy-trans-stilbene] | – | 2.55 ± 2.09 mL/day | 22.6 ± 0.70 g | 3.12 ± 0.79 g | 441 ± 48.7 mg/dL | 2.97 ± 2.11 µg/day | 5.67 ± 3.21 mL |

| SMILES | IC50 [1] | IC50 [2, 4] | IC50 [2] | Urine output ([3]; 24 h metabolic cage) | Body Weight [3] | Food intake [3] | Plasma glucose [3] | Urinary Albumin [3] | Water intake [3] |
| --- | --- | --- | --- | --- | --- | --- | --- | --- | --- |
| c1ccc(N=Nc2ccccc2)cc1 [Azobenzene] | 10 ± 1.1 µM | – | 13 ± 2.1 µM | – | – | – | – | – | – |
